# Source: US20240174634A1, “Aldehyde Dehydrogenase Inhibitors and Their Therapeutic Use” (priority 2020, published 2024)
# pIC50: −log10 of the molar value.
# Target: T1, ALDH2 (Homo sapiens, UniProt P05091)
# T1 sequence (P05091 18-517): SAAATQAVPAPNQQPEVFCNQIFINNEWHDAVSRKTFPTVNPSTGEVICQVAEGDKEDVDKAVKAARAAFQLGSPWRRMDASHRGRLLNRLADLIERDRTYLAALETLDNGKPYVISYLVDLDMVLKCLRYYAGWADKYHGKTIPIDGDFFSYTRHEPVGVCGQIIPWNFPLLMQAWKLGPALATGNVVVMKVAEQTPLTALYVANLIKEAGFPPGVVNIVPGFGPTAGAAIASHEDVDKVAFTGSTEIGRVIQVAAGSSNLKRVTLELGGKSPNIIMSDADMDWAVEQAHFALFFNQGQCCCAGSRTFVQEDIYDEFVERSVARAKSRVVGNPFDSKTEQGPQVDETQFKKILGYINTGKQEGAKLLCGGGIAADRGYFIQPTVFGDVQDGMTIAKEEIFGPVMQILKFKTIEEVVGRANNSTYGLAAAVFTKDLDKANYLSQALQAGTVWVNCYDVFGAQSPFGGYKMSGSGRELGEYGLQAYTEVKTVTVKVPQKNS
# Test: Selectivity biochemical assay, NAD(P)H-Glo Detection System
# Method: Materials: ALDH2 was purchased from Abnova. Tris(hydroxymethyl)aminomethane (Tris) was purchased from MP Biomedicals. TCEP, ethylenediaminetetraacetic acid (EDTA), propionaldehyde, DMSO and Tween-20 were purchased from Sigma. Nicotinamide adenine dinucleotide (NAD) was obtained from Abcam. The NAD(P)H-Glo™ Detection System was purchased from Promega. White, non-binding surface, 384 well plates were supplied by Corning (#3574).
# Method: Inhibition of ALDH1A3 was assessed using the NAD(P)H-Glo™ Detection System (Cat. No. G9062) from Promega. This assay detects the production of NADH from NAD by ALDH1A3 via the coupled enzymatic conversion of a proluciferin reductase substrate to generate a luminescent signal. Inhibition of ALDH1A3 by small molecule inhibitors will result in reduction or abrogation of luminescence signal increase above background. Inhibition of ALDH1A1, ALDH1A2 and ALDH2 (selectivity assays) were assessed using the same assay.
# Compounds were dosed into Corning 384 well assay plates using an Echo acoustic dispenser to give 10 point curves in a 3-fold dilution series. Compounds were dispensed from a 20 mM DMSO stock and initially screened at a top concentration of 20 μM (ALDH1A3) or 250 μM (ALDH1A1, ALDH1A2 & ALDH2). Enzyme was added to the plate in a 5 μL volume, according to the final concentrations in table 1 below, and pre-incubated with compound for 30 minutes at room temperature before the addition of 5 μL of the substrate (propionaldehyde) and cofactor (NAD), to effect final concentrations equal to the Km as shown in Table 1. The assay buffer used consisted of 40 mM Tris for 1A1 (pH 7.6), 1A2 (pH 7.6) and 1A3 (pH 9.0) and 10 mM Tris for ALDH2 (pH 8.0) supplemented with 1 mM TCEP, 0.01% Tween-20, 0.1 mM EDTA. The reaction mix was incubated at 26° C. on a shaking incubator for 30 minutes before being stopped by the addition of 10 μL of the Promega detection reagent and 100×IC50 of inhibitors of the respective isoforms. After stopping the reaction the plate was incubated for 60 minutes at room temperature and the luminescence signal read on a PheraStar FS microplate reader (BMG Labtech) and resulting IC50 values were calculated using Dotmatics software.
# Enzyme, substrate and cofactor concentrations were selected to ensure the reaction ran under initial velocity conditions.
row,SMILES,pIC50
1,"O=C1CCc2cc(OCCN3CCCC3c3cccs3)ccc2N1 (centres unmarked) [ALDHI-2013, 6-[2-[2-(2-thienyl)pyrrolidin-1-yl]ethoxy]-3,4-dihydro-1H-quinolin-2-one]",≤ 4.00
2,"O=C1CCc2cc(OCCN3CCCC3c3ccsc3)ccc2N1 (centres unmarked) [ALDHI-2014, 6-[2-[2-(3-thienyl)pyrrolidin-1-yl]ethoxy]-3,4-dihydro-1H-quinolin-2-one]",≤ 4.00
3,"CCn1cc(C2CCCN2CCOc2ccc3c(c2)CCC(=O)N3)cn1 (centres unmarked) [ALDHI-2016, 6-[2-[2-(1-ethylpyrazol-4-yl)pyrrolidin-1-yl]ethoxy]-3,4-dihydro-1H-quinolin-2-one]",≤ 4.00
4,"O=C1CCc2cc(OCCN3CCC[C@H]3c3cccc(F)c3)ccc2N1 [ALDHI-2018, 6-[2-[(2S)-2-(3-fluorophenyl)pyrrolidin-1-yl]ethoxy]-3,4-dihydro-1H-quinolin-2-one]",≤ 4.00
5,"O=C1CCc2cc(OCCN3CCCC3c3ccccc3)ccc2N1 (centres unmarked) [ALDHI-2019, 6-[2-(2-phenylpyrrolidin-1-yl)ethoxy]-3,4-dihydro-1H-quinolin-2-one]",≤ 4.00
6,"O=C1CCCc2cc(OCCN3CCCC3c3cccc(F)c3)ccc2N1 (centres unmarked) [ALDHI-2020, 7-[2-[2-(3-fluorophenyl)pyrrolidin-1-yl]ethoxy]-1,3,4,5-tetrahydro-1-benzazepin-2-one]",≤ 4.00
7,"O=C1CCc2cc(OCCN3CCC3c3cccc(F)c3)ccc2N1 (centres unmarked) [ALDHI-2021, 6-[2-[2-(3-fluorophenyl)azetidin-1-yl]ethoxy]-3,4-dihydro-1H-quinolin-2-one]",≤ 4.00
8,"O=c1ccc2cc(OCCN3CCCC3c3cccc(F)c3)ccc2[nH]1 (centres unmarked) [ALDHI-2022, 6-[2-[2-(3-fluorophenyl)pyrrolidin-1-yl]ethoxy]-1H-quinolin-2-one]",≤ 4.00
9,"O=C1CCc2cc(OCCn3nccc3-c3cccc(F)c3)ccc2N1 [ALDHI-2023, 6-[2-[5-(3-fluorophenyl)pyrazol-1-yl]ethoxy]-3,4-dihydro-1H-quinolin-2-one]",≤ 4.00
10,"Cn1cc(C2CCCN2CCOc2ccc3c(c2)SCC(=O)N3)cn1 (centres unmarked) [ALDHI-2026, 7-[2-[2-(1-methylpyrazol-4-yl)pyrrolidin-1-yl]ethoxy]-4H-1,4-benzothiazin-3-one]",≤ 4.00
11,"O=C1CSc2cc(OCCN3CCCC3c3ccccn3)ccc2N1 (centres unmarked) [ALDHI-2027, 7-[2-[2-(2-pyridyl)pyrrolidin-1-yl]ethoxy]-4H-1,4-benzothiazin-3-one]",≤ 4.00
12,"O=C1CSc2cc(OCCN3CCCC3c3cccnc3)ccc2N1 (centres unmarked) [ALDHI-2028, 7-[2-[2-(3-pyridyl)pyrrolidin-1-yl]ethoxy]-4H-1,4-benzothiazin-3-one]",≤ 4.00
13,"O=C1CSc2cc(OCCN3CCCC3c3ccncc3)ccc2N1 (centres unmarked) [ALDHI-2029, 7-[2-[2-(4-pyridyl)pyrrolidin-1-yl]ethoxy]-4H-1,4-benzothiazin-3-one]",≤ 4.00
14,"Cc1ccc(C2CCCN2CCOc2ccc3c(c2)CCC(=O)N3)cn1 (centres unmarked) [ALDHI-2030, 6-[2-[2-(6-methyl-3-pyridyl)pyrrolidin-1-yl]ethoxy]-3,4-dihydro-1H-quinolin-2-one]",≤ 4.00
15,"O=C1CCc2cc(OCCN3CCOCC3c3cccc(F)c3)ccc2N1 (centres unmarked) [ALDHI-2031, 6-[2-[3-(3-fluorophenyl)morpholin-4-yl]ethoxy]-3,4-dihydro-1H-quinolin-2-one]",≤ 4.00
16,"O=C1CCc2cc(OCCN3CCCC3c3cc(F)cc(F)c3)ccc2N1 (centres unmarked) [ALDHI-2032, 6-[2-[2-(3,5-difluorophenyl)pyrrolidin-1-yl]ethoxy]-3,4-dihydro-1H-quinolin-2-one]",≤ 4.00
17,"Cc1nc(C2CCCN2CCOc2ccc3c(c2)CCC(=O)N3)cs1 (centres unmarked) [ALDHI-2033, 6-[2-[2-(2-methylthiazol-4-yl)pyrrolidin-1-yl]ethoxy]-3,4-dihydro-1H-quinolin-2-one]",≤ 4.00
18,"COc1cccc(C2CCCN2CCOc2ccc3c(c2)CCC(=O)N3)c1 (centres unmarked) [ALDHI-2034, 6-[2-[2-(3-methoxyphenyl)pyrrolidin-1-yl]ethoxy]-3,4-dihydro-1H-quinolin-2-one]",≤ 4.00

row,SMILES,pIC50
1,"CC1(c2cccc(F)c2)CCCN1CCOc1ccc2c(c1)CCC(=O)N2 (centres unmarked) [ALDHI-2037, 6-[2-[2-(3-fluorophenyl)-2-methyl-pyrrolidin-1-yl]ethoxy]-3,4-dihydro-1H-quinolin-2-one]",≤ 4.00
2,"O=C1CCc2cc(OCCN3CCCCC3c3cccc(F)c3)ccc2N1 (centres unmarked) [ALDHI-2038, 6-[2-[2-(3-fluorophenyl)-1-piperidyl]ethoxy]-3,4-dihydro-1H-quinolin-2-one]",≤ 4.00
3,"O=C1CCc2cc(OCCN3CCCC3c3ccc(F)c(F)c3)ccc2N1 (centres unmarked) [ALDHI-2039, 6-[2-[2-(3,4-difluorophenyl)pyrrolidin-1-yl]ethoxy]-3,4-dihydro-1H-quinolin-2-one]",≤ 4.00
4,"CC1(c2ccccc2)COCCN1CCOc1ccc2c(c1)CCC(=O)N2 (centres unmarked) [ALDHI-2040, 6-[2-(3-methyl-3-phenyl-morpholin-4-yl)ethoxy]-3,4-dihydro-1H-quinolin-2-one]",≤ 4.00
5,"O=C1CCc2cc(OCCn3ccnc3-c3ccccc3)ccc2N1 [ALDHI-2041, 6-[2-(2-phenylimidazol-1-yl)ethoxy]-3,4-dihydro-1H-quinolin-2-one]",≤ 4.00
6,"CC1(C)Oc2cc(OCCN3CCCC3c3cccc(F)c3)ccc2NC1=O (centres unmarked) [ALDHI-2043, 7-[2-[2-(3-fluorophenyl)pyrrolidin-1-yl]ethoxy]-2,2-dimethyl-4H-1,4-benzoxazin-3-one]",≤ 4.00
7,"CC1Oc2cc(OCCN3CCCC3c3cccc(F)c3)ccc2NC1=O (centres unmarked) [ALDHI-2044, 7-[2-[2-(3-fluorophenyl)pyrrolidin-1-yl]ethoxy]-2-methyl-4H-1,4-benzoxazin-3-one]",≤ 4.00
8,"CCC1Oc2cc(OCCN3CCCC3c3cccc(F)c3)ccc2NC1=O (centres unmarked) [ALDHI-2045, 2-ethyl-7-[2-[2-(3-fluorophenyl)pyrrolidin-1-yl]ethoxy]-4H-1,4-benzoxazin-3-one]",≤ 4.00
9,"CC1Cc2cc(OCCN3CCCC3c3cccc(F)c3)ccc2NC1=O (centres unmarked) [ALDHI-2048, 6-[2-[2-(3-fluorophenyl)pyrrolidin-1-yl]ethoxy]-3-methyl-3,4-dihydro-1H-quinolin-2-one]",≤ 4.00
10,"O=C1CCc2cc(OCCN3CCCC3c3cccc(F)c3)c(F)cc2N1 (centres unmarked) [ALDHI-2050, 7-fluoro-6-[2-[2-(3-fluorophenyl)pyrrolidin-1-yl]ethoxy]-3,4-dihydro-1H-quinolin-2-one]",≤ 4.00
11,"O=C1CCc2cc(OCCN3C(=O)CCC3c3ccccc3)ccc2N1 (centres unmarked) [ALDHI-2051, 6-[2-(2-oxo-5-phenyl-pyrrolidin-1-yl)ethoxy]-3,4-dihydro-1H-quinolin-2-one]",≤ 4.00
12,"O=C1CCc2cc(OCCN3CC(F)CC3c3cccc(F)c3)ccc2N1 (centres unmarked) [ALDHI-2052, 6-[2-[4-fluoro-2-(3-fluorophenyl)pyrrolidin-1-yl]ethoxy]-3,4-dihydro-1H-quinolin-2-one]",≤ 4.00
13,"O=C1CCc2cc(OCCN3CC(F)(F)CC3c3cccc(F)c3)ccc2N1 (centres unmarked) [ALDHI-2053, 6-[2-[4,4-difluoro-2-(3-fluorophenyl)pyrrolidin-1-yl]ethoxy]-3,4-dihydro-1H-quinolin-2-one]",≤ 4.00
14,"CN(CCOc1ccc2c(c1)CCC(=O)N2)Cc1cccc(F)c1 [ALDHI-3001, 6-[2-[(3-fluorophenyl)methyl-methyl-amino]ethoxy]-3,4-dihydro-1H-quinolin-2-one]",≤ 4.00
15,"O=C1CCc2cc(OCCN(CCO)Cc3cccc(F)c3)ccc2N1 [ALDHI-3002, 6-[2-[(3-fluorophenyl)methyl-(2-hydroxyethyl)amino]ethoxy]-3,4-dihydro-1H-quinolin-2-one]",≤ 4.00
16,"CN(CCOc1ccc2c(c1)CCC(=O)N2)C(CO)c1cccc(F)c1 (centres unmarked) [ALDHI-3003, 6-[2-[[1-(3-fluorophenyl)-2-hydroxy-ethyl]-methyl-amino]ethoxy]-3,4-dihydro-1H-quinolin-2-one]",≤ 4.00
17,"CCN(CC)CCN(CCOc1ccc2c(c1)CCC(=O)N2)Cc1ccccc1 [ALDHI-3004, 6-[2-[benzyl-[2-(diethylamino)ethyl]amino]ethoxy]-3,4-dihydro-1H-quinolin-2-one]",≤ 4.00
